Data on 8 molecules can be found in patent US20100222426A1, “Anti-Bacterial Agents” (priority 2007, published 2010).

Values after ≈ are worked out from the molar mass of the structure shown. Like-named read-outs stand apart in the source and are kept apart here. Where only a bound is given, the exact number is not on record here.

The subject of one data set is M. phlei ATCC11758. Briefly: MIC assay (MHB microtitre, MTT). To be noted: Mycolicibacterium phlei. The class given is cell-based.
The subject of a further data set is S. aureus XU212. Kind of data set: microbe, parasite or virus in culture. To be noted: Staphylococcus aureus. The class given is cell-based.
The subject of the next data set is S. aureus RN4220. Briefly: MIC assay (MHB microtitre, MTT). The class given is cell-based. The settings on record: Staphylococcus aureus. On the procedure:
Bacteria were cultured on nutrient agar (Oxoid) and incubated for 24 h at 37 ° C. prior to MIC determination. […] An inoculum density of 5×10^5 cfu of S. aureus was prepared in normal saline (9 g/l) by comparison with a 0.5 MacFarland turbidity standard. The inoculum (125 μl) was added to all wells and the microtitre plate was incubated at 37° C. for 18 h. For MIC determination, 20 μl of a 5 mg/ml methanolic solution of 3-[4,5-dimethylthiazol-2-yl]-2,5-diphenyltetrazolium bromide (MTT; Sigma) was added to each of the wells and incubated for 20 min. Bacterial growth was indicated by a colour change from yellow to dark blue. The MIC was recorded as the lowest concentration at which no growth was observed.

The test system of a further data set is M. fortuitum ATCC6841. Briefly: MIC assay (MHB microtitre, MTT). The class given is cell-based. To be noted: Mycolicibacterium fortuitum.
The next data set concerns S. aureus ATCC25923. Kind of data set: MIC assay (MHB microtitre, MTT). The class given is cell-based. The settings on record: Staphylococcus aureus.
For another data set, the system named is S. aureus EMRSA16. Briefly: MIC assay (MHB microtitre, MTT). The class given is cell-based. The settings on record: Staphylococcus aureus.
The test system of the next data set is Group A Streptococcus. Kind of data set: MIC on IsoSensitest agar / broth, clinical isolates. The class given is cell-based, S. pyogenes. The settings on record: in broth and agar, read-out: minimum inhibitory concentration. On the procedure:
(§1) Compound 7 was tested using bacteria which were recent clinical isolates, or were standard reference controls. The clinical isolates were selected to represent important resistant phenotypes currently prevalent in the UK and worldwide. They included (i) methicillin-resistant Staphylococcus aureus (MRSA), specifically the epidemic (E)MRSA-15 and 16 strains dominant in the UK; (ii) methicillin-resistant coagulase negative staphylococci (i.e. S. epidermidis, S. haemolyticus); (iii) vancomycin-resistant as well as susceptible Enterococcus faecalis and E. faecium; (iv) penicillin-resistant and—susceptible Streptococcus pneumoniae; (v) group A streptococci (=S. pyogenes, which remain universally susceptible to penicillin) and (vi) Clostridium difficile.
(§2) MICs were determined on IsoSensitest agar (ISA) (method of British Society for Antimicrobial Chemotherapy, http://www.bsac.org.uk) or by microdilution in IsoSensitest Broth (ISB). Both media were from Oxoid, Basingstoke, Hants. Plates were variously incubated, at 35-37° C., in air, air enriched with 5% CO2 or under anaerobic conditions.

For a further data set, the system named is M. smegmatis MC2 2700. Briefly: MIC assay (MHB microtitre, MTT). The class given is cell-based. To be noted: Mycolicibacterium smegmatis, MC22700.
Data set [1] relates to penicillin-resistant and penicillin-sensitive Streptococcus pneumoniae. Briefly: MIC on IsoSensitest agar / broth, clinical isolates. The class given is cell-based. The settings on record: in broth and agar, penicillin-resistant and -sensitive S. pneumoniae, read-out: minimum inhibitory concentration. The procedure:
as §1, §2

The subject of data set [2] is vancomycin-resistant and vancomycin-sensitive Enterococcus faecium. Described as above. The class given is cell-based. To be noted: in broth and agar, vancomycin-resistant and -sensitive E. faecium, read-out: minimum inhibitory concentration. On the procedure: as §1, §2
The subject of data set [3] is methicillin-resistant coagulase-negative Staphylococcus epidermidis. The data set is described as above. The settings on record: in broth and agar, methicillin-resistant S. epidermidis, read-out: minimum inhibitory concentration. The class given is cell-based. The procedure: as §1, §2
The test system of data set [4] is epidemic methicillin-resistant Staphylococcus aureus 15 and 16. Described as above. The class given is cell-based. The settings on record: in broth and agar, EMRSA-15 and 16 clinical isolates, read-out: minimum inhibitory concentration. The procedure: as §1, §2
The test system of data set [5] is methicillin-sensitive coagulase-negative Staphylococcus haemolyticus. Described as above. The class given is cell-based. To be noted: in broth and agar, methicillin-sensitive S. haemolyticus, read-out: minimum inhibitory concentration. The procedure:
as §1, §2

The subject of data set [6] is methicillin-sensitive coagulase-negative Staphylococcus epidermidis. Described as above. The class given is cell-based. The settings on record: in broth and agar, methicillin-sensitive S. epidermidis, read-out: minimum inhibitory concentration. The procedure: as §1, §2
The test system of data set [7] is vancomycin-resistant and vancomycin-sensitive Enterococcus faecalis. Described as above. The class given is cell-based. To be noted: in broth and agar, vancomycin-resistant and -sensitive E. faecalis, read-out: minimum inhibitory concentration. On the procedure: as §1, §2
In data set [8] the test system is methicillin-sensitive Staphylococcus aureus. The description is as above. The class given is cell-based. The settings on record: in broth and agar, methicillin-sensitive S. aureus, read-out: minimum inhibitory concentration. On the procedure: as §1, §2
The test system of another data set is S. typhimurium L10. Briefly: MIC assay (MHB microtitre, MTT). To be noted: Salmonella enterica. The class given is cell-based.
The test system of a further data set is S. aureus EMRSA15. Briefly: MIC assay (MHB microtitre, MTT). The class given is cell-based. To be noted: Staphylococcus aureus.
The test system of a further data set is P. aeruginosa K1119. Kind of data set: MIC assay (MHB microtitre, MTT). The class given is cell-based. The settings on record: Pseudomonas aeruginosa.
In a further data set the test system is S. aureus SA1199B. Briefly: MIC assay (MHB microtitre, MTT). The class given is cell-based. The settings on record: Staphylococcus aureus.
A further data set has as its system P. aeruginosa K767. Kind of data set: MIC assay (MHB microtitre, MTT). The class given is cell-based. The settings on record: Pseudomonas aeruginosa.
For data set [9], the system named is NCTC6571 Staphylococcus aureus. Briefly: MIC on IsoSensitest agar / broth, standard laboratory strain. The class given is cell-based. To be noted: in broth and agar, read-out: minimum inhibitory concentration. On the procedure:
as §1, §2

For a further data set, the system named is Streptococcus pneumoniae. The data set is described as above. The class given is cell-based. The settings on record: ATCC29212; in broth and agar; Streptococcus pneumoniae ATCC 29212; read-out: minimum inhibitory concentration. The procedure:
as §1, §2

For data set [10], the system named is Enterococcus faecalis ATCC29212. Described as above. To be noted: in broth and agar, read-out: minimum inhibitory concentration. The class given is cell-based. The procedure: as §1, §2
For a further data set, the system named is M. smegmatis ATCC14468. Kind of data set: MIC assay (MHB microtitre, MTT). The class given is cell-based. To be noted: Mycolicibacterium smegmatis.
A further data set has as its system S. typhimurium L354. Kind of data set: MIC assay (MHB microtitre, MTT). The class given is cell-based. To be noted: Salmonella enterica.
In data set [11] the test system is MRSA and penicillin-resistant Staphylococcus aureus. The settings on record: cited from earlier work.
For data set [12] the following is noted: has to be stabilised as a salt; cited from earlier work.
The test system of data set [13] is panel of multidrug-resistant strains of Staphylococcus aureus. The settings on record: inventors' 2006 poster; cited from earlier work.

Regarding `CCC(C)C(=O)c1c(O)cc(O)cc1OC/C=C(\C)CCC=C(C)C` (centres unmarked) [Compound 7], the MIC came to 4 µg/mL (≈ 11.5 µM) against M. phlei ATCC11758; 1 µg/mL (≈ 2.89 µM) in the data set on S. aureus XU212; 1 µg/mL (≈ 2.89 µM) against S. aureus RN4220; 8 µg/mL (≈ 23.1 µM) in the data set on M. fortuitum ATCC6841; 1 µg/mL (≈ 2.89 µM) in the data set on S. aureus ATCC25923; 1 µg/mL (≈ 2.89 µM) in the data set with S. aureus EMRSA16. In addition, the MIC is 4 µg/mL (≈ 11.5 µM) in the data set on Group A Streptococcus; 4 µg/mL (≈ 11.5 µM) in the data set with M. smegmatis MC2 2700; 2 to 4 µg/mL (≈ 5.77 to 11.5 µM) in data set [1]; 2 to 4 µg/mL (≈ 5.77 to 11.5 µM) in data set [2]; 2 to 8 µg/mL (≈ 5.77 to 23.1 µM) in [3]; 2 to 4 µg/mL (≈ 5.77 to 11.5 µM) in [4]. For the same molecule, the MIC in [5] was 16 µg/mL (≈ 46.2 µM); in data set [6], 2 to 4 µg/mL (≈ 5.77 to 11.5 µM); in [7], 4 µg/mL (≈ 11.5 µM); in data set [8] it was 2 to 8 µg/mL (≈ 5.77 to 23.1 µM); with S. typhimurium L10, over 512 µg/mL; with S. aureus EMRSA15, 0.5 µg/mL (≈ 1.44 µM). In addition, the MIC in the data set with P. aeruginosa K1119 is over 512 µg/mL; in the data set on S. aureus SA1199B it was 1 µg/mL (≈ 2.89 µM); in the data set on P. aeruginosa K767 (K767), over 512 µg/mL; in data set [9] it was 4 µg/mL (≈ 11.5 µM); in the data set on Streptococcus pneumoniae, 4 µg/mL (≈ 11.5 µM); in data set [10] it was 4 µg/mL (≈ 11.5 µM). The MIC against M. smegmatis ATCC14468 was 4 µg/mL (≈ 11.5 µM); with S. typhimurium L354, over 512 µg/mL.
Turning to `Cc1onc(-c2ccccc2)c1C(=O)N[C@@H]1C(=O)N2[C@@H]1SC(C)(C)[C@@H]2C(=O)O` [Oxacillin, reference compound], the MIC with S. aureus EMRSA16 was 512 µg/mL (≈ 1280 µM); against S. aureus EMRSA15, 16 µg/mL (≈ 39.9 µM).
Turning to `CC[C@@H](CO)NCCN[C@@H](CC)CO` [Ethambutol], the MIC in the data set with M. phlei ATCC11758, in the data set with M. fortuitum ATCC6841, with M. smegmatis MC2 2700 and in the data set with M. smegmatis ATCC14468 was 0.5 µg/mL (≈ 2.45 µM) throughout.
On to `CC[C@H]1OC(=O)[C@H](C)[C@@H](O[C@H]2C[C@@](C)(OC)[C@@H](O)[C@H](C)O2)[C@H](C)[C@@H](O[C@@H]2O[C@H](C)C[C@H](N(C)C)[C@H]2O)[C@](C)(O)C[C@@H](C)C(=O)[C@H](C)[C@@H](O)[C@]1(C)O` [Erythromycin, erythromycin, reference compound], for which the MIC in the data set on S. aureus RN4220 came to 128 µg/mL (≈ 174 µM).
Turning to `CC(C)=CCC[C@]1(C)[C@@H](CC=C(C)C)C[C@@]2(CC=C(C)C)C(=O)[C@]1(C(=O)C(C)C)C(=O)C(CC=C(C)C)=C2O` [Hyperforin], the “Minimum Inhibitory Concentration (MIC)” value in data set [11] is 0.1 to 0.5 µg/mL. For the same molecule, the stability result in data set [12] was “unstable”.
For `NNC(=O)c1ccncc1` [Isoniazid], the MIC in the data set on M. phlei ATCC11758 was found to be 2 µg/mL (≈ 14.6 µM); with M. fortuitum ATCC6841, 4 µg/mL (≈ 29.2 µM); in the data set with M. smegmatis MC2 2700, 2 µg/mL (≈ 14.6 µM); with M. smegmatis ATCC14468 it was 2 µg/mL (≈ 14.6 µM).
As for `O=c1c2cc(O)ccc2oc2cccc(O)c12` [1,7-dihydroxyxanthone], the minimum inhibitory concentration in data set [13] was 128 to 256 µg/mL.
As for `CCn1cc(C(=O)O)c(=O)c2cc(F)c(N3CCNCC3)cc21` [Norfloxacin, norfloxacin, reference compound], the MIC with S. aureus ATCC25923 was 1 µg/mL (≈ 3.13 µM); with P. aeruginosa K1119 it was 2 µg/mL (≈ 6.26 µM); against S. aureus SA1199B, 32 µg/mL (≈ 100 µM); in the data set on P. aeruginosa K767 (P. aeruginosa K767, read-out: MIC), 2 µg/mL (≈ 6.26 µM).
